From patent US11560371B2, “Cereblon binding compounds, compositions thereof, and methods of treatment therewith” (Celgene Corporation, priority 2020, dated 2023) come the findings set out here.

Structures can show the parent of a compound that is named as a salt.

In this test the target is T1, AR (Homo sapiens, UniProt P10275).
T1 construct: endogenous in cells; host or cells: VCaP cells
T1 sequence (P10275 1-920): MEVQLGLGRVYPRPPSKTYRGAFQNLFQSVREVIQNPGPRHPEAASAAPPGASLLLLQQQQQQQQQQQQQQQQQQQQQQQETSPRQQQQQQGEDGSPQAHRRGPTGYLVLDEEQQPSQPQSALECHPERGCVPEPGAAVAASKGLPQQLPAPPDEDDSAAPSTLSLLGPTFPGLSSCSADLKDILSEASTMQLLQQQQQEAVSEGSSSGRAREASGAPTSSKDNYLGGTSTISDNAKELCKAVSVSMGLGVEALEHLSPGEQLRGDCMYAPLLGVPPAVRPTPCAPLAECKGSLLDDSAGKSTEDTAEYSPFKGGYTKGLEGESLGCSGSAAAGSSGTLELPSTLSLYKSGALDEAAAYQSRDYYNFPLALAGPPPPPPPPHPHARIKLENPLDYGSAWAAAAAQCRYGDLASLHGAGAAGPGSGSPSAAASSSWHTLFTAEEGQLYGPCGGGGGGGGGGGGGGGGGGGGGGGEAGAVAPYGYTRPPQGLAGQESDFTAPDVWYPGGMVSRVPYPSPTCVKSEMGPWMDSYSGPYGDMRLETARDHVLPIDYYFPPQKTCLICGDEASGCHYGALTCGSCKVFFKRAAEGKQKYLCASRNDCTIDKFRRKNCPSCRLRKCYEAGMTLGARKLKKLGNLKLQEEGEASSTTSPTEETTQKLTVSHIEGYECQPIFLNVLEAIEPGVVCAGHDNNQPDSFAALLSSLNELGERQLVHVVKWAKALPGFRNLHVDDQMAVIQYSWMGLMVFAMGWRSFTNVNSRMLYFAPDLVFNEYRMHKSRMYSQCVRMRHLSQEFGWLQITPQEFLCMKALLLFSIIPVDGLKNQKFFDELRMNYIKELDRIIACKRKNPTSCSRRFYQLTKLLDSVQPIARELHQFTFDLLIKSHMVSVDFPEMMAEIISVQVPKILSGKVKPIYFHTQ
Put plainly: VCAP AR Degradation Assay. Type of test: cell-based. To be noted: VCaP cells, 24 h, AR ELISA; for DC50: concentration of compound when AR level = 50% of DMSO control (50% AR degradation); for Y: lowest measured AR level normalized to DMSO control (AR degradation efficiency). As to the method: VCAP AR Degradation Assay. Test compounds were pre-dispensed into a Corning CellBind 96-well clear bottom plate (Cat #3300) using an acoustic dispenser to make a 10-point concentration series at 1:3 dilution for each compound. The final top concentration of each compound was 5 μM. DMSO at a final concentration of 0.1% was used as a control. VCaP cells cultured in DMEM with 8% fetal bovine serum (FBS) were seeded at 50K cells per well in a 200 μL volume into the compound plate and incubated at 37° C. in a CO2 incubator for 24 h. The medium was carefully removed from the cells and the plate was placed on ice. […] ice-cold 1× cell lysis buffer from Cell Signaling Technologies (Cat #9803) was added to each well of the cells and the plate was incubated at 4° C. on a shaker for 1 h. Fifteen μL of cell lysate was used for AR ELISA detection using a PathScan Total Sandwich AR ELISA kit (Cell Signaling Technology, Cat #12580). AR levels in compound-treated wells were normalized to that of DMSO control and expressed as percent of control (PoC) (y). A Four Parameter Logistic Model (Sigmoidal Dose-Response Model) was used to determine the compound's DC50, and EC50, using the following equation: y=(A+((B−A)/(1+((C/x)^D)))) • A=YMin (lowest AR level normalized to DMSO control in response to compound treatment, as determined by curve fit) • B=YMax (maximum AR level as determined by curve fit) • C=EC50 • D=Hill Slope • x=compound concentration • EC50=the concentration of compound when y=[…] • DC50=the concentration of the compound when y=50% of DMSO control (50% AR degradation) • y=AR protein level normalized to DMSO control
The lowest measured AR level normalized to DMSO control in response to compound treatment, termed Y value, was used to characterize the compound-mediated AR degradation efficiency.

As usually defined, the DC50 is the concentration giving 50% degradation. A low value points to a more potent degrader. `C[C@@H]1CN(CCO[C@H]2CC[C@H](N3C(=S)N(c4ccc(C#N)c(C(F)(F)F)c4)C(=O)C3(C)C)CC2)C[C@H](C)N1CCCOc1cccc2c(N3CCC(=O)NC3=O)nn(C)c12` [Cmpd 16, 4-(3-(trans-4-(2-((3S,5R)-4-(3-((3-(2,4-dioxotetrahydropyrimidin-1(2H)-yl)-1-methyl-1H-indazol-7-yl)oxy)propyl)-3,5-dimethylpiperazin-1-yl)ethoxy)cyclohexyl)-4,4-dimethyl-5-oxo-2-thioxoimidazolidin-1-yl)-2-(trifluoromethyl)benzonitrile hydrochloride]: the DC50 was in the range of 0.1 to 10 µM and the Y entry is given as “*** (30%<Y<60%)”.
For the compound `Cn1nc(N2CCC(=O)NC2=O)c2cccc(NC(=O)CN3CCN(CCO[C@H]4CC[C@H](N5C(=S)N(c6cnc(C#N)c(C(F)(F)F)c6)C(=O)C5(C)C)CC4)C[C@@H]3C(F)(F)F)c21` [Cmpd 27, 2-((R)-4-(2-(((trans)-4-(3-(6-Cyano-5-(trifluoromethyl)pyridin-3-yl)-5,5-dimethyl-4-oxo-2-thioxoimidazolidin-1-yl)cyclohexyl)oxy)ethyl)-2-(trifluoromethyl)piperazin-1-yl)-N-(3-(2,4-dioxotetrahydropyrimidin-1(2H)-yl)-1-methyl-1H-indazol-7-yl)acetamide], the DC50 is no more than 0.002 µM and the Y result was “** (20%<Y≤%)”.
In the same order, the values of `C[C@@H]1C[C@H](OCCC[C@H]2CC[C@H](N3C(=S)N(c4cnc(C#N)c(C(F)(F)F)c4)C(=O)C3(C)C)CC2)C[C@H](C)N1CC(=O)Nc1cccc2c(N3CCC(=O)NC3=O)nn(C)c12` [Cmpd 30, 2-((2R,4r,6S)-4-(3-((trans)-4-(3-(6-Cyano-5-(trifluoromethyl)pyridin-3-yl)-5,5-dimethyl-4-oxo-2-thioxoimidazolidin-1-yl)cyclohexyl)propoxy)-2,6-dimethylpiperidin-1-yl)-N-(3-(2,4-dioxotetrahydropyrimidin-1(2H)-yl)-1-methyl-1H-indazol-7-yl)acetamide] are 0.002 to 0.01 µM and “* (0<Y≤20%)”.
In the same order, the values of `C[C@@H]1C[C@H](CCO[C@H]2CC[C@H](N3C(=S)N(c4ccc(C#N)c(C(F)(F)F)c4)C(=O)C3(C)C)CC2)C[C@H](C)N1CC(=O)Nc1cccc2c(N3CCC(=O)NC3=O)nn(C)c12` [Cmpd 14, 2-((2R,4r,6S)-4-(2-((trans-4-(3-(4-Cyano-3-(trifluoromethyl)phenyl)-5,5-dimethyl-4-oxo-2-thioxoimidazolidin-1-yl)cyclohexyl)oxy)ethyl)-2,6-dimethylpiperidin-1-yl)-N-(3-(2,4-dioxotetrahydropyrimidin-1(2H)-yl)-1-methyl-1H-indazol-7-yl)acetamide hydrochloride] are 0.002 to 0.01 µM and “* (0<Y≤20%)”.
For `C[C@@H]1C[C@H](OCCO[C@H]2CC[C@H](N3C(=S)N(c4ccc(C#N)c(C(F)(F)F)c4)C(=O)C3(C)C)CC2)C[C@H](C)N1CC(=O)Nc1cccc2c(N3CCC(=O)NC3=O)nn(C)c12` [Cmpd 33, 2-((2R,4r,6S)-4-(2-(((trans)-4-(3-(4-Cyano-3-(trifluoromethyl)phenyl)-5,5-dimethyl-4-oxo-2-thioxoimidazolidin-1-yl)cyclohexyl)oxy)ethoxy)-2,6-dimethylpiperidin-1-yl)-N-(3-(2,4-dioxotetrahydropyrimidin-1(2H)-yl)-1-methyl-1H-indazol-7-yl)acetamide] the same measures were 0.002 to 0.01 µM and “** (20%<Y≤%)”.
For the compound `C[C@@H]1C[C@@H](CCOC2CCC(N3C(=S)N(c4cnc(C#N)c(C(F)(F)F)c4)C(=O)C3(C)C)CC2)C[C@H](C)N1CC(=O)Nc1cccc2c(N3CCC(=O)NC3=O)nn(C)c12` (stereo partly drawn) [Cmpd 25, 2-((2R,4s,6S)-4-(2-(((trans)-4-(3-(6-Cyano-5-(trifluoromethyl)pyridin-3-yl)-5,5-dimethyl-4-oxo-2-thioxoimidazolidin-1-yl)cyclohexyl)oxy)ethyl)-2,6-dimethylpiperidin-1-yl)-N-(3-(2,4-dioxotetrahydropyrimidin-1(2H)-yl)-1-methyl-1H-indazol-7-yl)acetamide], the DC50 is no more than 0.002 µM and the Y result is reported as “* (0<Y≤20%)”.
As to `C[C@@H]1CN(CCO[C@H]2CC[C@H](N3C(=S)N(c4ccc(C#N)c(C(F)(F)F)c4)C(=O)C3(C)C)CC2)C[C@H](C)N1CCNc1cccc2c(N3CCC(=O)NC3=O)nn(C)c12` [Cmpd 18, 4-(3-(trans-4-(2-((3R,5S)-4-(2-((3-(2,4-Dioxotetrahydropyrimidin-1(2H)-yl)-1-methyl-1H-indazol-7-yl)amino)ethyl)-3,5-dimethylpiperazin-1-yl)ethoxy)cyclohexyl)-4,4-dimethyl-5-oxo-2-thioxoimidazolidin-1-yl)-2-(trifluoromethyl)benzonitrile hydrochloride], the Y entry is reported as “*** (30%<Y<60%)”. Moreover, the DC50 (hydrochloride) lay in the range of 0.01 to 0.1 µM.
Turning to `C[C@@H]1CN(CCCO[C@H]2CC[C@H](N3C(=S)N(c4ccc(C#N)c(C(F)(F)F)c4)C(=O)C3(C)C)CC2)C[C@H](C)N1CC(=O)Nc1cccc2c(N3CCC(=O)NC3=O)nn(C)c12` [Cmpd 8, 2-((2R,6S)-4-(3-((trans-4-(3-(4-Cyano-3-(trifluoromethyl)phenyl)-5,5-dimethyl-4-oxo-2-thioxoimidazolidin-1-yl)cyclohexyl)oxy)propyl)-2,6-dimethylpiperazin-1-yl)-N-(3-(2,4-dioxotetrahydropyrimidin-1(2H)-yl)-1-methyl-1H-indazol-7-yl)acetamide hydrochloride], the DC50 was no more than 0.002 µM and the Y entry is “* (0<Y≤20%)”.
In the same order, the values of `C[C@@H]1CN(CCO[C@H]2CC[C@H](N3C(=S)N(c4ccc(C#N)c(C(F)(F)F)c4)C(=O)C3(C)C)CC2)C[C@H](C)N1CC(=O)Nc1cccc2c(N3CCC(=O)NC3=O)nn(C)c12` [Cmpd 1, 2-((2S,6R)-4-(2-((trans-4-(3-(4-Cyano-3-(trifluoromethyl)phenyl)-5,5-dimethyl-4-oxo-2-thioxoimidazolidin-1-yl)cyclohexyl)oxy)ethyl)-2,6-dimethylpiperazin-1-yl)-N-(3-(2,4-dioxotetrahydropyrimidin-1(2H)-yl)-1-methyl-1H-indazol-7-yl)acetamide hydrochloride] are 0.01 to 0.1 µM and “*** (30%<Y<60%)”.
In the same order, the values of `C[C@@H]1CN(CCC[C@H]2CC[C@H](N3C(=S)N(c4cnc(C#N)c(C(F)(F)F)c4)C(=O)C3(C)C)CC2)C[C@H](C)N1CC(=O)Nc1cccc2c(N3CCC(=O)NC3=O)nn(C)c12` [Cmpd 10, 2-((2R,6S)-4-(3-(trans-4-(3-(6-Cyano-5-(trifluoromethyl)pyridin-3-yl)-5,5-dimethyl-4-oxo-2-thioxoimidazolidin-1-yl)cyclohexyl)propyl)-2,6-dimethylpiperazin-1-yl)-N-(3-(2,4-dioxotetrahydropyrimidin-1(2H)-yl)-1-methyl-1H-indazol-7-yl)acetamide hydrochloride] are 0.002 to 0.01 µM and “* (0<Y≤20%)”.
